Where two headings read alike, the source gives them in different places.

This experiment has as its target T1, LRRK2 Ser935 phosphorylation in SH-SY5Y cells over-expressing recombinant full length LRRK2 (Homo sapiens, UniProt Q5S007).
T1 construct: A BacMam virus expressing full length recombinant LRRK2 was purchased from Invitrogen; host or cells: SH-SY5Y (BacMam transduction)
Put plainly: Recombinant cellular LRRK2 AlphaScreen assay. The experiment is classed as cell-based. The text has this:
Recombinant Cellular LRRK2 AlphaScreen Assay
To determine the activity of compounds against LRRK2 kinase activity in cells, the observed LRRK2 kinase-dependent modulation of LRRK2 Ser 935 phosphorylation (Dzamko et al., 2010, Biochem. J. 430: 405-413) was utilized to develop a quantitative 384 well plate-based immunoassay of LRRK2 Ser935 phosphorylation in the human neuroblastoma cell line SH-SY5Y, engineered to over-express recombinant full length LRRK2 protein.
A BacMam virus expressing full length recombinant LRRK2 was purchased from Invitrogen and amplified by inoculation of SF-9 cells at MOI 0.3 for 4-5 days in Sf-900 III SFM medium supplemented with 3% fetal bovine serum. Infected cell cultures were then centrifuged at 2000 g for 20 minutes, viral supernatant titer determined by anti-gp64 plaque assay and stored at 4° C.
Affinity-purified anti-phospho LRRK2 Ser935 sheep polyclonal antibody (Dzamko et al., 2010, Biochem. J. 430: 405-413) was biotinylated by standard methods (PerkinElmer). Anti-LRRK2 rabbit polyclonal antibody was purchased from Novus Biologicals. AlphaScreen Protein A IgG Kit (including acceptor and donor beads) was purchased from Perkin Elmer.
SH-SY5Y cells were grown in DMEM/F12 medium with 10% dialysed fetal bovine serum and harvested by treatment with 0.5% trypsin-EDTA for 5 minutes at 37° C. followed by centrifugation at 1000 rpm for 4 minutes. The cell pellet was resuspended in Opti-MEM reduced serum media (Invitrogen) at 200,000 cells/ml and mixed with the BacMam LRRK2 virus at M01=50. 50 μl cell solutions were then dispensed to each well of a 384-well plate and incubated at 37° C., 5% CO2 for 24 hours.
Serial dilutions of test compounds were prepared in Opti-MEM reduced serum media (Invitrogen) and 5.6 ul transferred from compound plate to cell assay plate to achieve a top final assay concentration of 10 uM. DMSO was used in certain wells as controls. Cells were incubated at 37° C., 5% CO2 for 60 minutes. The medium was then removed and cells lysed by addition of 20 ul cell lysis buffer (Cell Signaling Technology) and incubation at 4° C. for 20 minutes. 10 ul of antibody/acceptor bead mix [(1/1000 biotinylated-pS935 LRRK2 antibody, 1/1000 total-LRRK2 antibody, 1/100 Acceptor beads in AlphaScreen detection buffer (25 mM Hepes (pH 7.4), 0.5% Triton X-100, 1 mg/ml Dextran 500 and 0.1% BSA)] was then added to each well and plates incubated for 2 hours at ambient temperature in the dark. 10 μl of donor beads solution (1/33.3 donor beads in AlphaScreen detection buffer) was then added to each well. Following incubation for a further 2 hours at ambient temperature in the dark, plates were read on an EnVision™ plate reader at emission 520-620 nm with excitation 680 nm. Dose response curve data was based on sigmoidal dose-response model.
For orientation: Bead proximity is the source of the signal in Alpha formats.

Where [1] appears, read: read-out: pIC50 in the recombinant cellular LRRK2 alphaScreen assay (converted).

T1 sequence (Q5S007 whole entry): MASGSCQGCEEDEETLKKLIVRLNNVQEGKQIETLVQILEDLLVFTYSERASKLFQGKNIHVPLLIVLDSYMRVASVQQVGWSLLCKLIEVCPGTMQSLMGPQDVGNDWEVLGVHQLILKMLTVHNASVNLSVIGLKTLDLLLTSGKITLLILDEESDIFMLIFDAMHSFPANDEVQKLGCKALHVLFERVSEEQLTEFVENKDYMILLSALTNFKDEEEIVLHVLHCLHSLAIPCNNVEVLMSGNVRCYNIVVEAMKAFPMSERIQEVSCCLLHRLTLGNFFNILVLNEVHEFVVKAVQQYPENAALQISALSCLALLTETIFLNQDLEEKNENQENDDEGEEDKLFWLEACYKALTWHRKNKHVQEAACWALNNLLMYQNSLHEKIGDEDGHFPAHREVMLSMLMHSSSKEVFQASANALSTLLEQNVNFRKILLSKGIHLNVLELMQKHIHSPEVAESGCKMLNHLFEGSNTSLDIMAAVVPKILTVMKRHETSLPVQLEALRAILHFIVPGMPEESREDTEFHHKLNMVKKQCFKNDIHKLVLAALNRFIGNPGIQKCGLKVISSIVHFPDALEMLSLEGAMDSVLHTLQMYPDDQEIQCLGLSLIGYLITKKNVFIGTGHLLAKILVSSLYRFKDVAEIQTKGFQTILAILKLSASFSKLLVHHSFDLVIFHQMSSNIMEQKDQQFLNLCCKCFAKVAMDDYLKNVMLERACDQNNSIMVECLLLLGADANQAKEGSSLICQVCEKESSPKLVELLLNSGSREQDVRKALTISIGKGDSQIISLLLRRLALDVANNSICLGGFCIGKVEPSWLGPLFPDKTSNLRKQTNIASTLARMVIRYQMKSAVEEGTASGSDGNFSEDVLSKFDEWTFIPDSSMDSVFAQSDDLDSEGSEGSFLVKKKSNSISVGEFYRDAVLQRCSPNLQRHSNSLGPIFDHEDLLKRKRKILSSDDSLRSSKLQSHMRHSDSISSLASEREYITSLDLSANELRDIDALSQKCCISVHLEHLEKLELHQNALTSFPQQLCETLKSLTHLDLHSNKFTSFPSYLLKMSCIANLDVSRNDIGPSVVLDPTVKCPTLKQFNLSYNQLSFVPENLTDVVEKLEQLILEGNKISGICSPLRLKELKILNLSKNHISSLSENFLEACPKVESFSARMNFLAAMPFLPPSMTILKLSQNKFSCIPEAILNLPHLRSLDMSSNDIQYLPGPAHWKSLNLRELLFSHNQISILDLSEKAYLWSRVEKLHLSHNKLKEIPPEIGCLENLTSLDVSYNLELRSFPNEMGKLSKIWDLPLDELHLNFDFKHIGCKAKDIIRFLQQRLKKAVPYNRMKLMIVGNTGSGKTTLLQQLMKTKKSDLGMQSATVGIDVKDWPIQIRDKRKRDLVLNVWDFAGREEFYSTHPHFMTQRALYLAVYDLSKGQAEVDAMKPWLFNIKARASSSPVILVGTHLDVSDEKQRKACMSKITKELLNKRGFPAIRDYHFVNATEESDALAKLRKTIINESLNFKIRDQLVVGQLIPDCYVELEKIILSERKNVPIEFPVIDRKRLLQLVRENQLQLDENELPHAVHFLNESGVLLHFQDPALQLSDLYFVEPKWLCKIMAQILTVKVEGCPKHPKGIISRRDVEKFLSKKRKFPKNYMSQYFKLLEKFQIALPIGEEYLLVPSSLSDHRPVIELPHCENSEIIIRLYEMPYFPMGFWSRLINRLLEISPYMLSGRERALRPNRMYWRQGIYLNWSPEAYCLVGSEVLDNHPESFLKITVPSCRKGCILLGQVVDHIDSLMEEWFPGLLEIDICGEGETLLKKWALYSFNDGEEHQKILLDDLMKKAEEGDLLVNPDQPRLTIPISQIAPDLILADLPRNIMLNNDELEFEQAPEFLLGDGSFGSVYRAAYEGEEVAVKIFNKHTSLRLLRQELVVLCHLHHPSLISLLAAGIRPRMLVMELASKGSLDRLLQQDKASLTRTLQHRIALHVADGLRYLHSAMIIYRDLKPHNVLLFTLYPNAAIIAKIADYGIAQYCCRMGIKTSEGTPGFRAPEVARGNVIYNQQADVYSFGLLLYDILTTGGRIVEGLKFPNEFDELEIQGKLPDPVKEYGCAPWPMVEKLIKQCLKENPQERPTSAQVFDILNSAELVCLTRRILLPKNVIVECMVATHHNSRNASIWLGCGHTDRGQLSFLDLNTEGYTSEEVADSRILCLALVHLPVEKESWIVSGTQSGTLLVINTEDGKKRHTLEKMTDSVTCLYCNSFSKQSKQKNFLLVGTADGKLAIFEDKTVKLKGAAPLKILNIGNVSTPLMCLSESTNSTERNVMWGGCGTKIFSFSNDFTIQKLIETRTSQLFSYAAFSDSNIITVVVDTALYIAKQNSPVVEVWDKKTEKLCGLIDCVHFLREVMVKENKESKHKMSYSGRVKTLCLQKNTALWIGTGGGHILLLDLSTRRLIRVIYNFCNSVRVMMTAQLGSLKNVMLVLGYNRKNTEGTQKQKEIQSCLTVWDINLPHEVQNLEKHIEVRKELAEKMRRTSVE

As for `CCOc1nc(Nc2cn(CCF)nc2C)nc2[nH]ccc12` [Example E27, 4-ethoxy-N-(1-(2-fluoroethyl)-3-methyl-1H-pyrazol-4-yl)-7H-pyrrolo-[2,3-d]-pyrimidin-2-amine], under setting [1], the IC50 was at most 0.1 µM.

Turning to `CCOc1nc(Nc2cnn(C3CNCCO3)c2Cl)nc2[nH]ccc12` (single isomer, unassigned) [Example E143, N-(5-chloro-1-(morpholin-2-yl)-1H-pyrazol-4-yl)-4-ethoxy-7H-pyrrolo[2,3-d]pyrimidin-2-amine], under setting [1], the IC50 was at most 0.1 µM.

`CCOc1nc(Nc2cnn(C)c2Cl)nc2[nH]ccc12` [Example E4, N-(5-chloro-1-methyl-1H-pyrazol-4-yl)-4-ethoxy-7H-pyrrolo-[2,3-d]-pyrimidin-2-amine]: the IC50 under setting [1] was at most 0.1 µM.

For `CCOc1nc(Nc2cnn(CC(C)(C)C#N)c2C)nc2[nH]ccc12` [Example E62, 3-(4-((4-ethoxy-7H-pyrrolo-[2,3-d]pyrimidin-2-yl)amino)-5-methyl-1H-pyrazol-1-yl)-2,2-dimethylpropanenitrile], the IC50 under setting [1] was at most 0.1 µM.

On to `CCOc1nc(Nc2cnn(C3CNCCC3(F)F)c2C)nc2[nH]ccc12` (single isomer, unassigned) [Example E117, N-(1-(4,4-difluoropiperidin-3-yl)-5-methyl-1H-pyrazol-4-yl)-4-ethoxy-7H-pyrrolo[2,3-d]pyrimidin-2-amine], for which the IC50 (LRRK2 Ser935 phosphorylation, 60 minutes, read-out: recombinant cellcular LRRK2 alphaScreen assay (pIC50) (converted)) is 0.00251 µM and the IC50 under setting [1] was at most 0.1 µM.

As to `CCOc1nc(Nc2cnn(CCN3CCO[C@@H](C)C3)c2C)nc2[nH]ccc12` [Example E84, (S)-4-ethoxy-N-(5-methyl-1-(2-(2-methylmorpholino)ethyl)-1H-pyrazol-4-yl)-7H-pyrrolo [2,3-d]pyrimidin-2-amine], under setting [1], the IC50 was at most 0.1 µM.

As for `CCOc1nc(Nc2cnn([C@@H]3CCN[C@@H](C(F)F)C3)c2C)nc2[nH]ccc12` [Example E94, N-(1-((2R,4R)-2-(difluoromethyl)piperidin-4-yl)-5-methyl-1H-pyrazol-4-yl)-4-ethoxy-7H-pyrrolo[2,3-d]pyrimidin-2-amine], the IC50 under setting [1] was at most 0.1 µM.

For the compound `CCOc1nc(Nc2cnn([C@@H]3CCN(C4COC4)C[C@H]3F)c2C)nc2[nH]ccc12` [Example E98, 4-ethoxy-N-(1-((3R,4R)-3-fluoro-1-(oxetan-3-yl)piperidin-4-yl)-5-methyl-1H-pyrazol-4-yl)-7H-pyrrolo[2,3-d]pyrimidin-2-amine], the IC50 under setting [1] was at most 0.1 µM.

Consider `CCOc1nc(Nc2cnn([C@@H]3CCO[C@H](C)C3)c2C)nc2[nH]ccc12` (single isomer, unassigned) [Example E42], for which the IC50 under setting [1] was at most 0.1 µM.

Regarding `CCOc1nc(Nc2cnn(C3CCOCC3)c2Cl)nc2[nH]ccc12` [Example E22, N-(5-chloro-1-(tetrahydro-2H-pyran-4-yl)-1H-pyrazol-4-yl)-4-ethoxy-7H-pyrrolo-[2,3-d]-pyrimidin-2-amine], the IC50 under setting [1] is at most 0.1 µM.

Turning to `CCOc1nc(Nc2cnn(C3(C)CC(N4CCOCC4)C3)c2C)nc2[nH]ccc12` (stereo not shown) [Example E137, 4-ethoxy-N-(5-methyl-1-(1-methyl-3-morpholinocyclobutyl)-1H-pyrazol-4-yl)-7H-pyrrolo[2,3-d]pyrimidin-2-amine], the IC50 under setting [1] is at most 0.1 µM.

On to `CCOc1nc(Nc2cnn(C3CC(C)(O)C3)c2C)nc2[nH]ccc12` (stereo not shown) [Example E93, 3-(4-((4-ethoxy-7H-pyrrolo[2,3-d]pyrimidin-2-yl)amino)-5-methyl-1H-pyrazol-1-yl)-1-methylcyclobutanol], for which the IC50 under setting [1] is at most 0.1 µM.

For the compound `CCOc1nc(Nc2cnn(C3CCOCC3)c2C)nc2[nH]ccc12` [Example E11, 4-ethoxy-N-(5-methyl-1-(tetrahydro-2H-pyran-4-yl)-1H-pyrazol-4-yl)-7H-pyrrolo-[2,3-d]-pyrimidin-2-amine], under setting [1], the IC50 is at most 0.1 µM.

Regarding `CCOc1nc(Nc2cnn(CCF)c2C)nc2[nH]cc(C#N)c12` [Example E50, 4-ethoxy-2-((1-(2-fluoroethyl)-5-methyl-1H-pyrazol-4-yl)-amino)-7H-pyrrolo-[2,3-d]-pyrimidine-5-carbonitrile], the IC50 under setting [1] is at most 0.1 µM.

For the compound `CCOc1nc(Nc2cnn([C@H]3CCN[C@@H](C(F)F)C3)c2C)nc2[nH]ccc12` [Example E95, N-(1-((2R,4S)-2-(difluoromethyl)piperidin-4-yl)-5-methyl-1H-pyrazol-4-yl)-4-ethoxy-7H-pyrrolo[2,3-d]pyrimidin-2-amine], under setting [1], the IC50 was at most 0.1 µM.

As for `CCOc1nc(Nc2cnn(CCN3CC[C@H](F)C3)c2C)nc2[nH]ccc12` [Example E64, (S)-4-ethoxy-N-(1-(2-(3-fluoropyrrolidin-1-yl)ethyl)-5-methyl-1H-pyrazol-4-yl)-7H-pyrrolo[2,3-d]pyrimidin-2-amine], the IC50 under setting [1] was at most 0.1 µM.

`CCOc1nc(Nc2cnn(C3CCCC3(C)O)c2C)nc2[nH]ccc12` (single isomer, unassigned) [Example E77, trans-2-(4-((4-ethoxy-7H-pyrrolo-[2,3-d]pyrimidin-2-yl)amino)-5-methyl-1H-pyrazol-1-yl)-1-methylcyclopentanol]: the IC50 under setting [1] was at most 0.1 µM.

As for `CCOc1nc(Nc2cnn(C3CCCOC3)c2C)nc2[nH]ccc12` (single isomer, unassigned) [Example E30, 4-ethoxy-N-(5-methyl-1-(tetrahydro-2H-pyran-3-yl)-1H-pyrazol-4-yl)-7H-pyrrolo-[2,3-d]pyrimidin-2-amine], the IC50 under setting [1] is at most 0.1 µM.

With `CCOc1nc(Nc2cnn(CC(C)(C)O)c2Cl)nc2[nH]ccc12` [Example E15, 1-(5-chloro-4-((4-ethoxy-7H-pyrrolo-[2,3-d]pyrimidin-2-yl)amino)-1H-pyrazol-1-yl)-2-methylpropan-2-ol], the IC50 under setting [1] was at most 0.1 µM.

As to `CCOc1nc(Nc2cn(C)nc2C)nc2[nH]ccc12` [Example E1, N-(1,3-dimethyl-1H-pyrazol-4-yl)-4-ethoxy-7H-pyrrolo[2,3-d]pyrimidin-2-amine], the IC50 under setting [1] was at most 0.1 µM.

Regarding `CCOc1nc(Nc2cnn(CCOC)c2C)nc2[nH]ccc12` [Example E9, 4-ethoxy-N-(1-(2-methoxyethyl)-5-methyl-1H-pyrazol-4-yl)-7H-pyrrolo-[2,3-d]pyrimidin-2-amine], the IC50 under setting [1] was at most 0.1 µM.

On to `CCOc1nc(Nc2cnn([C@H]3CC[C@@H](O)CC3)c2C)nc2[nH]ccc12` [Example E54, cis-4-(4-((4-ethoxy-7H-pyrrolo[2,3-d]pyrimidin-2-yl)amino)-5-methyl-1H-pyrazol-1-yl)-cyclohexanol], for which, under setting [1], the IC50 is at most 0.1 µM.

As to `CCOc1nc(Nc2cnn(C(C)(C)CO)c2C)nc2[nH]ccc12` [Example E65, 2-(4-((4-ethoxy-7H-pyrrolo-[2,3-d]pyrimidin-2-yl)amino)-5-methyl-1H-pyrazol-1-yl)-2-methylpropan-1-ol], the IC50 under setting [1] is at most 0.1 µM.

As for `CCOc1nc(Nc2cnn(C3CCN(C4COC4)CC3)c2C)nc2[nH]ccc12` [Example E53, 4-ethoxy-N-(5-methyl-1-(1-(oxetan-3-yl)-piperidin-4-yl)-1H-pyrazol-4-yl)-7H-pyrrolo-[2,3-d]-pyrimidin-2-amine], the IC50 under setting [1] was at most 0.1 µM.

Regarding `CCOc1nc(Nc2cnn([C@@H]3CCN(CC(F)F)C3)c2C)nc2[nH]ccc12` [Example E85, (R)—N-(1-(1-(2,2-difluoroethyl)pyrrolidin-3-yl)-5-methyl-1H-pyrazol-4-yl)-4-ethoxy-7H-pyrrolo[2,3-d]pyrimidin-2-amine], the IC50 under setting [1] is at most 0.1 µM.

As for `CCOc1nc(Nc2cnn(C3CN(C4COC4)CCC3(F)F)c2Cl)nc2[nH]ccc12` (single isomer, unassigned) [Example E123, N-(5-chloro-1-(4,4-difluoro-1-(oxetan-3-yl)piperidin-3-yl)-1H-pyrazol-4-yl)-4-ethoxy-7H-pyrrolo[2,3-d]pyrimidin-2-amine], the IC50 under setting [1] is at most 0.1 µM.

In the case of `CCOc1nc(Nc2cnn([C@H]3CCN(C)C3)c2C)nc2[nH]cc(C#N)c12` [Example E49, (S)-4-ethoxy-2-((5-methyl-1-(1-methyl-pyrrolidin-3-yl)-1H-pyrazol-4-yl)-amino)-7H-pyrrolo-[2,3-d]pyrimidine-5-carbonitrile], under setting [1], the IC50 was at most 0.1 µM.
